The results in this text go back to ChEMBL document CHEMBL1122068, “Species- or isozyme-specific enzyme inhibitors. 5. Differential effects of thymidine substituents on affinity for rat thymidine kinase isozymes” (J Med Chem, 1982).

The structures appear in SMILES notation. Some results are limits rather than exact numbers.

In assay [1] the target is T1, Thymidine kinase 2 (Rattus norvegicus) (UniProt D3ZGQ2).
T1 sequence (whole entry): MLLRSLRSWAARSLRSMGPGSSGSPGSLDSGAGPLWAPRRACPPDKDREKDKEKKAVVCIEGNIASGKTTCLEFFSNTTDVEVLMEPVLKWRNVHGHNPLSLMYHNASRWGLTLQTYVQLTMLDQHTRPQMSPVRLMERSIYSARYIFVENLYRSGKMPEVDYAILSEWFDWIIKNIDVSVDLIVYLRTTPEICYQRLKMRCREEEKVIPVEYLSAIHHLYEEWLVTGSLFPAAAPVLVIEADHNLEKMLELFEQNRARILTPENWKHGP
Nature of the assay: Ability to inhibit rat mitochondrial thymidine kinase. Details: concentration or dose not given beside the values. As to conditions: concentration not given here.

Assay [2] deals with T2, Thymidine kinase, cytosolic (Rattus norvegicus) (UniProt P27158).
T2 sequence (whole entry): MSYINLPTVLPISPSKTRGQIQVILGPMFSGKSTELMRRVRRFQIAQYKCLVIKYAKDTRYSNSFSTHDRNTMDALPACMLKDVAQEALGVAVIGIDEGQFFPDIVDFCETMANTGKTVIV
Nature of the assay: Affinity towards cytoplasmic Thymidine kinase relative ot TdR.

The target in assay [3] is T2, Thymidine kinase, cytosolic (Rattus norvegicus). Nature of the assay: Ability to inhibit rat cytoplasmic Thymidine kinase. As to conditions: concentration not given here. Also on record: concentration or dose not given beside the values.
The target in assay [4] is T3, Thymidine kinase, cytosolic (Rattus norvegicus, UniProt P27158).
T3 sequence (P27158 whole entry): T2 sequence (whole entry)
The assay can be described thus: Competitive inhibition against rat cytoplasmic Thymidine kinase.

Assay [5] deals with T2, Thymidine kinase, cytosolic (Rattus norvegicus). The assay can be described thus: (§1) Competitive inhibition against rat cytoplasmic thymidine kinase. Details: concentration or dose not given beside the values. The note with it: concentration not given here.
The target in assay [6] is T4, Thymidine kinase 2 (Rattus norvegicus, UniProt D3ZGQ2).
T4 sequence (D3ZGQ2 whole entry): T1 sequence (whole entry)
The assay can be described thus: Competitive inhibition against rat mitochondrial thymidine kinase.

Assay [7] has as its target T1, Thymidine kinase 2 (Rattus norvegicus). The assay can be described thus: Affinity towards mitochondrial thymidine kinase relative to TdR.
The species named for assay [8] is Rattus norvegicus. Nature of the assay: Differential affinity is the ratio between M-TK and C-TK.
Assay [9] deals with T3, Thymidine kinase, cytosolic. The assay is described as §1.
Assay [10] concerns the target T2, Thymidine kinase, cytosolic (Rattus norvegicus). Nature of the assay: Affinity towards cytoplasmic thymidine kinase relative ot TdR; expressed as KM (TdR)/Ki.
Assay [11] deals with T3, Thymidine kinase, cytosolic. Nature of the assay: Affinity towards cytoplasmic Thymidine kinase relative ot TdR; expressed as KM (TdR)/Ki.

Usually inhibition stands for the drop in the measured response relative to a control, in per cent. The Ki is the equilibrium dissociation constant of an inhibitor or competing ligand from its target.

On to `Cc1cn(C2CC(O)C(CSCCO)O2)c(=O)[nH]c1=O` (stereo unspecified), for which the inhibition came to 22% in [1] and 49% in assay [3]. This molecule also had a Relative affinity in assay [2] of 0.002. In assay [4], this molecule had a Ki of 820 µM.

As to `CC[S+]([O-])CC1OC(n2cc(C)c(=O)[nH]c2=O)CC1O` (stereo unspecified), the inhibition was found to be 7% in [1] and 4% in assay [5].

`C/C=C/c1cn([C@H]2C[C@H](O)[C@@H](CO)O2)c(=O)[nH]c1=O`: in [4], the affinity, expressed as Ki, was 15500 µM.

As to `CCCCCn1c(=O)c(C)cn([C@H]2C[C@H](O)[C@@H](CO)O2)c1=O`, the inhibition constant Ki in [6] was 1100 µM; in assay [4], 36 µM. The Relative affinity in assay [7] was 0.0073; in assay [2], 0.044. The Differential affinity in assay [8] is 0.17.

Take `Cc1cn([C@H]2C[C@H](O)[C@@H](CO)O2)c(=O)n(Cc2ccccc2)c1=O`: the Relative affinity was > 0.002 in assay [7] and 0.05 in assay [2]. Also, the inhibition in assay [1] stood at 10%. Affinity in assay [9] was put at a Ki of 320 µM. The Differential affinity in [8] amounted to 0.04.

Turning to `CCCCNCC1OC(n2cc(C)c(=O)[nH]c2=O)CC1O` (stereo unspecified), the inhibition in [1] worked out at 53%; in assay [3], 95%.

Turning to `O=c1ccn([C@@H]2O[C@H](CO)[C@@H](O)[C@H]2O)c(=O)[nH]1`, the inhibition in assay [1] and in assay [3] was 4% throughout.

Take `CCOC1N([C@H]2C[C@H](O)[C@@H](CO)O2)C(=O)NC(=O)C1(C)Br` (stereo in doubt; 4c) [listing 1 of 2 here]: the Ki turned out to be 11 µM in assay [6] and 3.9 µM in assay [4].

Consider `NCc1cn([C@H]2C[C@H](O)[C@@H](CO)O2)c(=O)[nH]c1=O`, for which the inhibition in assay [1] was found to be 3%; in [3], 30%.

In [4], `CCOC1N([C@H]2C[C@H](O)[C@@H](CO)O2)C(=O)NC(=O)C1(C)Br` (stereo in doubt; 4b) [listing 1 of 2 here] returned an inhibition constant Ki of 2 µM.

As for `Cc1cn([C@H]2C[C@H](O)[C@@H](CN)O2)c(=O)[nH]c1=O`, the inhibition constant (Ki) in assay [6] amounted to 4600 µM; in [4] it was 2.4 µM. Also, the Relative affinity in assay [7] was 0.0017; in [2], 0.67. The Differential affinity in [8] was 0.0025.

For the molecule `Nc1cn([C@H]2C[C@H](O)[C@@H](CO)O2)c(=O)[nH]c1=O`, the values for the inhibitory constant (Ki) in [6] and in [4] were 72 µM and 370 µM, respectively. Also, the figures for the Relative affinity in assay [7] and in assay [2] were 0.11 and 0.0043, respectively. The Differential affinity in [8] turned out to be 26.

Consider `Cc1cn([C@H]2CC[C@@H](CO)O2)c(=O)[nH]c1=O`, for which the figures for the inhibitory constant (Ki) in assay [6] and in assay [4] were 880 µM and 400 µM, respectively. In addition, the Relative affinity in [7] is 0.0091; in assay [2], 0.004. Moreover, the Differential affinity in assay [8] worked out at 2.3.

Take `CO[C@H]1C[C@H](n2ccc(N)nc2=O)O[C@@H]1CO`: the inhibition in assay [1] was found to be 24%; in assay [5], 3%.

For the molecule `CCNc1ccn([C@H]2C[C@H](O)[C@@H](CO)O2)c(=O)n1`, the inhibition is 5% in assay [1] and 7% in [3].

For `Cc1cn(C2CC(O)C(CSCCC(=O)O)O2)c(=O)[nH]c1=O` (stereo unspecified), the inhibition amounted to 25% in assay [1] and 40% in assay [3].

Regarding `CCC(=O)O[C@H]1C[C@H](n2ccc(N)nc2=O)O[C@@H]1CO`, the inhibition is 19% in assay [1] and 8% in assay [5].

In the case of `Cc1cn([C@H]2C[C@H](O)[C@@H](CO)O2)c(=O)n(C)c1=O`, in [8], the Differential affinity was < 0.022.

For `CC(=O)NCC1OC(n2cc(C)c(=O)[nH]c2=O)CC1O` (stereo unspecified), the inhibition amounted to 19% in assay [1] and 20% in assay [3].

In turn, `Nc1nc(=O)n([C@H]2C[C@H](O)[C@@H](CO)O2)cc1I` [IBACITABINE] gave a Ki in assay [4] of 11400 µM.

For `Cc1cn([C@H]2C[C@H](O)[C@@H](CO)O2)c(=O)nc1N`, the Relative affinity was 0.006 in [7] and 0.00076 in [2]. The Differential affinity in assay [8] is 7.9. This molecule came in with an inhibition constant Ki in assay [4] of 2100 µM.

For the molecule `Cc1cn([C@H]2C[C@H](OCc3ccccc3)[C@@H](CO)O2)c(=O)[nH]c1=O`, the inhibition constant Ki is 8 µM in assay [6] and 12 µM in [9]. Also, the Relative affinity in [7] stood at 1; in assay [2], 0.133. The Differential affinity in assay [8] is 7.5.

Consider `CC(=O)NC1CC(n2cc(C)c(=O)[nH]c2=O)OC1CO` (stereo unspecified), for which, in assay [8], the Differential affinity was < 4.8.

For `CCO[C@H]1C[C@H](n2cc(C)c(=O)[nH]c2=O)O[C@@H]1CO`, the Relative affinity in assay [7] amounted to 0.14; in [10], 0.044. Also, the inhibition constant Ki in assay [9] is 36 µM. In addition, in assay [8], the Differential affinity turned out to be 3.2.

With `CCSC1CC(n2cc(C)c(=O)[nH]c2=O)OC1CO` (stereo unspecified), the inhibition constant Ki stood at 62 µM in assay [6] and 24 µM in assay [4]. Moreover, the Relative affinity in assay [7] is 0.13; in assay [2] it was 0.067. Further, the Differential affinity in assay [8] was determined as 1.9.

With `CCSCC1OC(n2cc(C)c(=O)[nH]c2=O)CC1O` (stereo unspecified), the results for the inhibition in assay [1] and in assay [3] were 22% and 11%, respectively.

Turning to `CCNCC1OC(n2cc(C)c(=O)[nH]c2=O)CC1O` (stereo unspecified), the values for the Ki in assay [6] and in assay [4] were 1440 µM and 40 µM, respectively. In addition, the Relative affinity worked out at 0.0056 in assay [7] and 0.04 in assay [2]. Moreover, in [8], the Differential affinity was found to be 0.14.

In the case of `Nc1ccn([C@H]2C[C@H](O)[C@@H](CO)O2)c(=O)n1` [DOXECITINE], the Ki in assay [6] was 320 µM. This molecule returned a Relative affinity in [7] of 0.025. Further, the values for the inhibition in [1] and in [3] were 58% and 7%, respectively.

`Cn1c(=O)ccn([C@H]2C[C@H](O)[C@@H](CO)O2)c1=O`: the inhibition in [1] amounted to 4%; in assay [5], 62%.

Turning to `CCCCCCNCC1OC(n2cc(C)c(=O)[nH]c2=O)CC1O` (stereo unspecified), the inhibition constant Ki in assay [6] was 960 µM; in [4], 35 µM. In addition, the Relative affinity in assay [7] amounted to 0.0083; in assay [2], 0.046. In assay [8], the Differential affinity was 0.18.

In assay [6], `CC1CN([C@H]2C[C@H](O)[C@@H](CO)O2)C(=O)NC1=O` (stereo partly specified) displayed an inhibition constant Ki of 77 µM. The molecule also gave a Relative affinity in assay [7] of 0.1. Also, the figures for the inhibition in assay [1] and in [5] were 83% and 53%, respectively.

For `CSc1cn([C@H]2C[C@H](O)[C@@H](CO)O2)c(=O)[nH]c1=O`, the Ki in assay [6] came out at 250 µM; in [4] it was 50 µM. The Relative affinity in assay [7] and in assay [2] was 0.032 throughout. Besides, in [8], the Differential affinity came out at 1.

On to `O=c1ccn([C@H]2C[C@H](O)[C@@H](CO)O2)c(=O)[nH]1`, for which the inhibition worked out at 74% in [1] and 90% in assay [3].

As for `Nc1ccn([C@@H]2O[C@H](CO)[C@@H](O)[C@H]2O)c(=O)n1`, the inhibition in assay [1] came out at 13%; in [3], 1%.

With `CC(=O)Nc1cn([C@H]2C[C@H](O)[C@@H](CO)O2)c(=O)[nH]c1=O`, the results for the inhibition in assay [1] and in assay [3] were 11% and 0%, respectively.

Consider `CCOC1N([C@H]2C[C@H](O)[C@@H](CO)O2)C(=O)NC(=O)C1(C)Br` (stereo in doubt; 4b) [listing 2 of 2 here], for which the Relative affinity is 0.73 in assay [7] and 0.8 in assay [2]. The Differential affinity in assay [8] amounted to 0.91.

As for `Cc1cn(C2CC(O)C(CSCCCC(=O)O)O2)c(=O)[nH]c1=O` (stereo unspecified), the values for the inhibition in [1] and in [3] were 36% and 48%, respectively. The molecule also showed an inhibition constant Ki in assay [11] of 3600 µM.

In the case of `CCOC1N([C@H]2C[C@H](O)[C@@H](CO)O2)C(=O)NC(=O)C1(C)Br` (stereo in doubt; 4c) [listing 2 of 2 here], the Relative affinity is 0.73 in [7] and 0.41 in assay [2]. Further, in assay [8], the Differential affinity was 1.8.

As to `Cc1cn([C@H]2C[C@H](N)[C@@H](CO)O2)c(=O)[nH]c1=O` [3-AMINO- 3-DEOXYTHYMIDINE], the inhibition constant (Ki) in assay [6] was 2600 µM; in [4] it was 380 µM. In addition, the Relative affinity worked out at 0.0031 in [7] and 0.0042 in [2]. For the same molecule, the Differential affinity in assay [8] was found to be 0.74.

`Cc1cn([C@H]2C=C[C@@H](CO)O2)c(=O)[nH]c1=O` [STAVUDINE] returned an inhibitory constant (Ki) in assay [6] of 3250 µM. In addition, the Differential affinity in assay [8] amounted to 2.7.
